Tests used:
[1] = target: T1, human pancreatic lipase (HPL) (Homo sapiens, UniProt P16233); experiment: Inhibition of human pancreatic lipase pre-incubated with THL, coated tung oil triglyceride microplate (method A); type: biochemical; conditions: OD at 272 nm
T1 sequence (P16233 17-465): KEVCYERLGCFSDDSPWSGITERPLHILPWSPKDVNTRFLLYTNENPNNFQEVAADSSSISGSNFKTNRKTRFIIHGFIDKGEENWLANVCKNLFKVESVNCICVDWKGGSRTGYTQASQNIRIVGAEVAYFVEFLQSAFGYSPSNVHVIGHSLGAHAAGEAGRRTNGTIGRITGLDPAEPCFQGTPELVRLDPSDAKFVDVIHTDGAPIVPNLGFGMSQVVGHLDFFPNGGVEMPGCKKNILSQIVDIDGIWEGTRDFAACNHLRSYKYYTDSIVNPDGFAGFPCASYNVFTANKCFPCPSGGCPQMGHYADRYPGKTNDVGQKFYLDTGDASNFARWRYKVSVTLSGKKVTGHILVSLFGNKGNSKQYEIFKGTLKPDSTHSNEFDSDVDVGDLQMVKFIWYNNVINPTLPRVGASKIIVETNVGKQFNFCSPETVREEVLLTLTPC
Method: FIGS. 4A and 4B represent the inhibition kinetics of HPL (human pancreatic lipase) by THL (tetrahydrolipstatin). The microplate is prepared by “coating” with triglycerides (50 μg/well) extracted from tung oil which contains a high proportion of a-eleostearic acid. A solution (200 μl) of Tris buffer is added to the wells. The activity of the HPL alone, or pre-incubated with the THL, is measured by recording the optical density (method A; FIG. 4A). FIG. 4A represents the optical density (OD) at 272 nm as a function of time. The curve with the black circles corresponds to the lipase HPL alone; the curve with the black squares corresponds to the lipase HPL pre-incubated with THL in a ratio of 1:100 and the curve with the white circles corresponds to the lipase HPL pre-incubated with THL in a ratio of 1:50. The microtitration plates, with “coating” of the lipid substrate, are prepared as has been described above. A solution constituted by Tris buffer and β-cyclodextrin (3 mg/ml) is added into the wells. The optical density at 270 nm is recorded as a function of time for 5 to 10 min (see FIGS. 4A and 4B). A solution of human pancreatic lipase (HPL), alone or pre-incubated with THL (inhibitor), is injected into the wells. The enzymatic activity is then recorded as a function of time by measurement of the OD at 272 nm (method A; FIG. 4A). […]

[2] = target: T1, human pancreatic lipase (HPL); experiment: Inhibition of human pancreatic lipase by THL injected during lipolysis, coated microplate (method B); type: biochemical; conditions: THL 10 nM final injected during lipolysis, HPL 2 nM final
Method: FIG. 4B corresponds to a different protocol (method B): after the injection of HPL (at a final concentration of 2 nM), THL is injected into the reaction medium (at a final concentration of 10 nM) during lipolysis. The microtitration plates, with “coating” of the lipid substrate, are prepared as has been described above. A solution constituted by Tris buffer and β-cyclodextrin (3 mg/ml) is added into the wells. The optical density at 270 nm is recorded as a function of time for 5 to 10 min (see FIGS. 4A and 4B). A solution of human pancreatic lipase (HPL), alone or pre-incubated with THL (inhibitor), is injected into the wells. The enzymatic activity is then recorded as a function of time by measurement of the OD at 272 nm (method A; FIG. 4A). The pre-incubation of HPL with THL, at a molar excess of 1 to 100 or of 1 to 50 for 10 min, reduces the initial lipase activity by 75% or 40% respectively (see FIG. 4A). The effect of THL on the lipase activity has also been measured by injecting THL during lipolysis (method B; FIG. 4B). The injection of THL (at a final concentration of 10 nM) reduces the activity of HPL by approximately 40%.

SMILES: CCCCCCCCCCC[C@@H](C[C@@H]1OC(=O)[C@H]1CCCCCC)OC(=O)[C@H](CC(C)C)NC=O [THL, Tetrahydrolipstatin]
- reduction of the initial lipase activity ([1]; HPL pre-incubated with THL at a molar excess of 1 to 50 for 10 min): 40%
- reduction of the initial lipase activity ([1]; HPL pre-incubated with THL at a molar excess of 1 to 100 for 10 min): 75%
- reduction of the activity of HPL [2]: approximately 40%

From US20080193958A1, “Method for the High-Speed Detection and/or Measurement of a Lipase or Phospholipase Activity” (CENTRE NATIONAL DE LA RECHERCHE SCIENTIFIQUE, priority 2005, published 2008)
